# Test system: DNA repair protein genes
# Test: DNA chip mRNA expression in yeast, DNA repair protein genes (Table 3)
# Type: cell-based, Saccharomyces cerevisiae S288C
# Conditions: incubated two hours, concentrations as in the 1st table
# How it was run: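 Ratios compare mRNA levels in stressed and control S. cerevisiae. Each toxicant was applied for two hours to log-phase cultures at 25° C. at a sub-lethal, growth-inhibiting level; fluorescent cDNA (Cy3- or Cy5-dUTP) was hybridized to a genome-wide yeast chip for over 12 h at 65° C.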
structure (smiles),measurement,setting,value
"[Cl][Pb][Cl] [(4), PbCl2]",The level of expressed mRNA in the presence of chemical substance/The level of expressed mRNA in the absence of chemical substance,yeast gene YAL015C,1.9
same,The level of expressed mRNA in the presence of chemical substance/The level of expressed mRNA in the absence of chemical substance,yeast gene YAR007C,0.5
same,The level of expressed mRNA in the presence of chemical substance/The level of expressed mRNA in the absence of chemical substance,yeast gene YBL019W,1.2
same,The level of expressed mRNA in the presence of chemical substance/The level of expressed mRNA in the absence of chemical substance,yeast gene YBR073W,0.7
same,The level of expressed mRNA in the presence of chemical substance/The level of expressed mRNA in the absence of chemical substance,yeast gene YBR272C,1.0
same,The level of expressed mRNA in the presence of chemical substance/The level of expressed mRNA in the absence of chemical substance,yeast gene YCR014C,0.6
same,The level of expressed mRNA in the presence of chemical substance/The level of expressed mRNA in the absence of chemical substance,yeast gene YDL017W,1.3
same,The level of expressed mRNA in the presence of chemical substance/The level of expressed mRNA in the absence of chemical substance,yeast gene YDL059C,1.7
same,The level of expressed mRNA in the presence of chemical substance/The level of expressed mRNA in the absence of chemical substance,yeast gene YDL200C,1.8
same,The level of expressed mRNA in the presence of chemical substance/The level of expressed mRNA in the absence of chemical substance,yeast gene YDR054C,1.4
same,The level of expressed mRNA in the presence of chemical substance/The level of expressed mRNA in the absence of chemical substance,yeast gene YDR369C,1.1
same,The level of expressed mRNA in the presence of chemical substance/The level of expressed mRNA in the absence of chemical substance,yeast gene YEL019C,0.7
same,The level of expressed mRNA in the presence of chemical substance/The level of expressed mRNA in the absence of chemical substance,yeast gene YEL037C,1.0
same,The level of expressed mRNA in the presence of chemical substance/The level of expressed mRNA in the absence of chemical substance,yeast gene YER162C,1.1
same,The level of expressed mRNA in the presence of chemical substance/The level of expressed mRNA in the absence of chemical substance,yeast gene YFL014W,11.0
same,The level of expressed mRNA in the presence of chemical substance/The level of expressed mRNA in the absence of chemical substance,yeast gene YGL058W,0.7
same,The level of expressed mRNA in the presence of chemical substance/The level of expressed mRNA in the absence of chemical substance,yeast gene YGL091C,1.7
same,The level of expressed mRNA in the presence of chemical substance/The level of expressed mRNA in the absence of chemical substance,yeast gene YGL127C,1.7
same,The level of expressed mRNA in the presence of chemical substance/The level of expressed mRNA in the absence of chemical substance,yeast gene YGL163C,4.3
same,The level of expressed mRNA in the presence of chemical substance/The level of expressed mRNA in the absence of chemical substance,yeast gene YGL249W,0.8
same,The level of expressed mRNA in the presence of chemical substance/The level of expressed mRNA in the absence of chemical substance,yeast gene YGR180C,1.0
same,The level of expressed mRNA in the presence of chemical substance/The level of expressed mRNA in the absence of chemical substance,yeast gene YGR231C,1.0
same,The level of expressed mRNA in the presence of chemical substance/The level of expressed mRNA in the absence of chemical substance,yeast gene YGR258C,0.7
same,The level of expressed mRNA in the presence of chemical substance/The level of expressed mRNA in the absence of chemical substance,yeast gene YHR164C,0.7
same,The level of expressed mRNA in the presence of chemical substance/The level of expressed mRNA in the absence of chemical substance,yeast gene YIL036W,1.8
same,The level of expressed mRNA in the presence of chemical substance/The level of expressed mRNA in the absence of chemical substance,yeast gene YIL072W,2.6
same,The level of expressed mRNA in the presence of chemical substance/The level of expressed mRNA in the absence of chemical substance,yeast gene YIL143C,0.9
same,The level of expressed mRNA in the presence of chemical substance/The level of expressed mRNA in the absence of chemical substance,yeast gene YIL153W,2.9
same,The level of expressed mRNA in the presence of chemical substance/The level of expressed mRNA in the absence of chemical substance,yeast gene YIR002C,0.6
same,The level of expressed mRNA in the presence of chemical substance/The level of expressed mRNA in the absence of chemical substance,yeast gene YJL026W,1.0
same,The level of expressed mRNA in the presence of chemical substance/The level of expressed mRNA in the absence of chemical substance,yeast gene YJR046W,1.5
same,The level of expressed mRNA in the presence of chemical substance/The level of expressed mRNA in the absence of chemical substance,yeast gene YJR052W,1.0
same,The level of expressed mRNA in the presence of chemical substance/The level of expressed mRNA in the absence of chemical substance,yeast gene YKL145W,1.0
same,The level of expressed mRNA in the presence of chemical substance/The level of expressed mRNA in the absence of chemical substance,yeast gene YLR103C,0.4
same,The level of expressed mRNA in the presence of chemical substance/The level of expressed mRNA in the absence of chemical substance,yeast gene YLR233C,2.0
same,The level of expressed mRNA in the presence of chemical substance/The level of expressed mRNA in the absence of chemical substance,yeast gene YLR288C,1.8
same,The level of expressed mRNA in the presence of chemical substance/The level of expressed mRNA in the absence of chemical substance,yeast gene YML032C,0.7
same,The level of expressed mRNA in the presence of chemical substance/The level of expressed mRNA in the absence of chemical substance,yeast gene YML058W,1.9
same,The level of expressed mRNA in the presence of chemical substance/The level of expressed mRNA in the absence of chemical substance,yeast gene YMR035W,1.7
same,The level of expressed mRNA in the presence of chemical substance/The level of expressed mRNA in the absence of chemical substance,yeast gene YMR072W,1.0
same,The level of expressed mRNA in the presence of chemical substance/The level of expressed mRNA in the absence of chemical substance,yeast gene YMR096W,0.8
same,The level of expressed mRNA in the presence of chemical substance/The level of expressed mRNA in the absence of chemical substance,yeast gene YMR284W,2.0
same,The level of expressed mRNA in the presence of chemical substance/The level of expressed mRNA in the absence of chemical substance,yeast gene YNL213C,1.5
same,The level of expressed mRNA in the presence of chemical substance/The level of expressed mRNA in the absence of chemical substance,yeast gene YNL250W,1.2
same,The level of expressed mRNA in the presence of chemical substance/The level of expressed mRNA in the absence of chemical substance,yeast gene YNL261W,1.3
same,The level of expressed mRNA in the presence of chemical substance/The level of expressed mRNA in the absence of chemical substance,yeast gene YNL312W,0.7
same,The level of expressed mRNA in the presence of chemical substance/The level of expressed mRNA in the absence of chemical substance,yeast gene YOL043C,1.7
same,The level of expressed mRNA in the presence of chemical substance/The level of expressed mRNA in the absence of chemical substance,yeast gene YOR005C,0.8
same,The level of expressed mRNA in the presence of chemical substance/The level of expressed mRNA in the absence of chemical substance,yeast gene YOR386W,1.5
same,The level of expressed mRNA in the presence of chemical substance/The level of expressed mRNA in the absence of chemical substance,yeast gene YPL022W,1.2
same,The level of expressed mRNA in the presence of chemical substance/The level of expressed mRNA in the absence of chemical substance,yeast gene YPL164C,1.0
same,The level of expressed mRNA in the presence of chemical substance/The level of expressed mRNA in the absence of chemical substance,yeast gene YPL194W,1.1
same,The level of expressed mRNA in the presence of chemical substance/The level of expressed mRNA in the absence of chemical substance,yeast gene YPR025C,0.6
